These results are taken from patent US20260200987A1, “PEPTIDE FOR CARTILAGE REGENERATION, AND USES THEREOF” (CAREGEN CO., LTD., priority 2022, published 2026).

Ends that are not written are not given here.

Data set [1] has as its system human adipose-derived mesenchymal stem cells (AD-MSC). Nature of the data set: SRB staining, cell morphology changes. The conditions noted are these: peptide at different concentrations, FIG. 1 and FIG. 2. It is filed as cell-based. As for the experimental part: Additionally, for SRB staining, after suctioning the medium from the plate, 60 μL of 3.7% formalin was added to the 96-well plate to be stained and fixed for 1 minute. After suctioning 3.7% formalin, 70 μL of SRB staining solution (sulforhodamine B sodium salt (sigma, S9012): 0.2 g in 100 mL DDW) was added and stained. The plate was covered with aluminum foil, blocked from light, and incubated overnight at room temperature. After washing with 100 μL of 1% acetic acid using a multi-pipette, it was dried and observed under a microscope.

Data set [2] shares this test system. Briefly: CCK-8 assay, cytotoxicity. It is filed as cell-based. The conditions noted are these: after 7 days, peptide at different concentrations, FIG. 3 and FIG. 4.
Method: Specifically, AD-MSC cells were seeded in 96-well plates at a density of 1.5×10^3 cells/well and cultured in Dulbecco's Modified Eagle's Medium (DMEM) supplemented with 10% FBS for 24 hours. Then, the medium was replaced with DMEM medium supplemented with 5% FBS, and Peptide-1 or Peptide-2 was treated at different concentrations, respectively. Subsequently, the medium was replaced every 3 days and Peptide-1 or Peptide-2 was treated at different concentrations, respectively. To confirm CCK-8 activity, after 7 days, CCK-8 (Dojindo, CCK-8 kit) solution was added at 1/10 volume of the culture medium, and incubated for 2 hours. The culture medium was sampled and CCK-8 activity was confirmed at a wavelength of 450 nm using a microplate reader.

As to RIAFLWVRIK [Peptide-1, RIAFLWVRIK], the “change in cell morphology in SRB staining” value in data set [1] was “did not show any change in cell morphology”. In addition, the “toxicity toward adipose-derived mesenchymal stem cells (CCK-8 activity)” value in data set [2] is given as “did not exhibit toxicity”.
Turning to FCRPRNDFF [Peptide-2, FCRPRNDFF], the “change in cell morphology in SRB staining” value in data set [1] is given as “did not show any change in cell morphology”. Moreover, the “toxicity toward adipose-derived mesenchymal stem cells (CCK-8 activity)” value in data set [2] was “did not exhibit toxicity”.
